# System: Leishmania
# Experiment: Alamar Blue determination of activity against Leishmania (single concentration and GI50)
# Format: cell-based, Leishmania donovani, L. tropica
# Settings: for activity against leishmaniasis: statement in words in the description; for inhibition at 50 µM: Leishmania, compound concentration 50 µM; for GI50: concentrations between 50 and 0.01 μM
# Protocol: Leishmania donovani MHOM/SD/1962/1S-012D and L. tropica MHOM/IS/1990/LRC-L590 protozoa were used in the tests.
# Promastigotes were grown in a broth containing Medium-199 (Sigma, St. Louis, Mo.) supplemented with 2 mM L-glutamine, 100 μM adenosine, 23 μM folio acid, antibiotics (100 IU penicillin G and 100 μg/ml streptomycin), 1×BME vitamin mixture, 25 mM 2-(N-morpholin)ethanesulfonic acid (MES), 4.2 mM NaHCO3 and heat treated fetal calf serum (FCS, 10% v/v), pH being adjusted to 6.8, Promastigotes were grown at 26° C.
# Axenic amastigotes of L. donovani were grown according to the procedure presented by Debrabant et al., 2004, in the RPMI 1640 broth containing 20% v/v of fetal calf serum (FCS), at 37° C., pH 5.5, Axenic amastigotes of L. tropica were grown as described for L. donovani with the exception that only 10% v/v FCS was used, at 36° C. without CO2.
# Each dilution with the desired concentration of the parasite was dispensed as three parallel samples (250 μl/well) to a 96 well microtiter plate having a flat bottom (NUNC, Denmark), followed by the addition of Alamar Blue reagent (25 μl/well, ENCO). The plates were read (λcm=544 nm; λex2=590 nm) after following incubation times (3, 9, 24, 48 and 72 h) using a fluorescence microtiter plate reader (Fluoroskan, Ascent Fla., Finland).
# Activity of the compounds was tested both for L. donovani and L. tropica species. Promastigotes (2×10^6 cells/ml) or axenic amastigotes (5.0×10^5 cells/ml) were introduced as three parallel samples (125 μl/well) to 96 well microtiter plates having flat bottoms, the wells containing each compound diluted in the cultivation broth (125 with final concentration of DMSO of 1%), Initially, the concentration of the compounds was […]. Amphotericin B (1 μM) was included as positive control (Sigma, St. Louis, Mo.), Broth containing DMSO was used as negative control. The parasites were tested either with or without the compounds by incubating at 26° C. (promastigotes), at 36° C. (axenic amastogotes of L. tropica) or at 37° C. (axenic amastogotes of L. donovani). After 24 hours, the Alamar Blye reagent (25 μl/well) was added, the plates were still incubater for 24 hours, followed by fluorescence determination. GI50 assay was carried out using the same procedure, the concentrations of the compounds to be tested ranging, however, between 50 and 0.01 μM.
# Testing of the compounds was carried out as described in example 32.
# [1] = Table 5, tested as in example 32, species and stage not stated
# [2] = Table 4, 24 h, then Alamar Blue 24 h, fluorescence, species and stage not given
Compound,Inhibition of Leishmania (%) [1] [%],Inhibition of Leishmania (%) [2] [%],further results
"Diels-Alder adduct of 3β,28-diacetoxylupa-12,18-diene and 1,3-dioxol-5-ylurazole",52.2,–,activity against leishmaniasis: considerable activity
C=C(C)C1CCC2(COC(C)=O)CCC3(C)C(CCC4C5(C)CCC(=O)C(C)(C)C5CCC43C)C12 (stereo not shown) [28-acetate of betulonic alcohol],–,40.6,–
C=C(C)[C@@H]1CC[C@]2(/C=N/O)CC[C@]3(C)[C@H](CC[C@@H]4[C@@]5(C)CC[C@H](O)C(C)(C)[C@@H]5CC[C@]43C)[C@@H]12 [betulin 28-oxime],–,66.8,–
"Diels-Alder adduct of 3β,28-diacetoxylupa-12,18-diene and 1-naphthylurazole",57.7,–,activity against leishmaniasis: considerable activity
betulin 28-acetic acid methyl ester [betulin 28-acetic acid methylester],–,–,"Inhibition of Leishmania (%) (Table 4, compound concentration, 24 h, then Alamar Blue 24 h, fluorescence, species and stage not given): 95.3%; activity against leishmaniasis: considerable activity"
C=C(C)[C@@H]1CC[C@]2(CO)CC[C@]3(C)[C@H](CC[C@@H]4[C@@]5(C)CCC(=O)C(C)(C)[C@@H]5CC[C@]43C)[C@@H]12 [betulonic alcohol],–,44.0,–
"C=C(C)[C@@H]1CC[C@]2(CO)CC[C@]3(C)[C@H](CC[C@@H]4[C@@]5(C)CC[C@H](O)C(C)(C)[C@@H]5CC[C@]43C)[C@@H]12 [betulin, lup-20(29)-ene-3β,28-diol]",–,–,inhibition at 50 µM [2]: 35%
"Diels-Alder adduct of 3β,28-diacetoxylupa-12,18-diene and p-fluoro-4-phenylurazole",47.8,–,–
"C=C(C)[C@@H]1CC[C@]2(CO)CC[C@]3(C)[C@H](CC[C@@H]4[C@@]5(C)CC=CC(C)(C)[C@@H]5CC[C@]43C)[C@@H]12 [2,3-didehydro-3-deoxybetulin, reference compound]",–,13.2,–
"Diels-Alder adduct of 3β,28-diacetoxylupa-12,18-diene and m-methoxy-4-phenylurazole",43.5,–,–
"C=C(C)[C@@H]1CC[C@]2(C(=O)O)CC[C@]3(C)[C@H](CC[C@@H]4[C@@]5(C)CC[C@H](O)C(C)(C)[C@@H]5CC[C@]43C)[C@@H]12 [betulinic acid, reference compound]",–,–,inhibition at 50 µM [2]: 39.8%
C=C(C)[C@@H]1CC[C@]2(COC(=O)c3ccccc3NC(C)=O)CC[C@]3(C)C(CCC4[C@@]5(C)CC[C@H](O)C(C)(C)C5CC[C@]43C)C12 (stereo partly shown) [28-N-acetylanthranilic acid ester of betulin],–,59.2,activity against leishmaniasis: considerable activity
"Diels-Alder adduct of 3β,28-diacetoxylupa-12,18-diene and m-chloro-4-phenylurazole",29.7,–,–
"C=C(C)[C@@H]1CC[C@]2(/C=N/O)CC[C@]3(C)[C@H](CC[C@@H]4[C@@]5(C)CC/C(=N\O)C(C)(C)[C@@H]5CC[C@]43C)[C@@H]12 [betulin 3,28-dioxime]",–,72.4,–
C=C(C)C1CCC2(C(=O)NC(CC(=O)OC)C(=O)OC)CCC3(C)C(CCC4C5(C)CCC(=O)C(C)(C)C5CCC43C)C12 (stereo not shown) [28-aspartateamide dimethyl ester of betulonic acid],–,69.3,activity against leishmaniasis: considerable activity
"C=C(C)[C@@H]1CC[C@]2(C=O)CC[C@]3(C)[C@H](CC[C@@H]4[C@@]5(C)CCC(=O)C(C)(C)[C@@H]5CC[C@]43C)[C@@H]12 [betulonic aldehyde, reference compound]",–,46.2,–
C=C(C)C1CCC2(C#N)CCC3(C)C(CCC4C5(C)CCC(=NOC(C)=O)C(C)(C)C5CCC43C)C12 (stereo not shown) [betulin 3-acetoxyoxime-28-nitrile],–,66.4,activity against leishmaniasis: considerable activity

Compound,Inhibition of Leishmania (%) [1] [%],Inhibition of Leishmania (%) [2] [%],further results
C=C(C)[C@@H]1CC[C@]2(C(=O)O)CC[C@]3(C)[C@H](CC[C@@H]4[C@@]5(C)CCC(=O)C(C)(C)[C@@H]5CC[C@]43C)[C@@H]12 [betulonic acid],–,97.6,activity against leishmaniasis: considerable activity
"Diels-Alder adduct of 3β,28-diacetoxylupa-12,18-diene and 4-benzoylurazole",24.7,–,–
"Diels-Alder adduct of lupa-12,18-diene and 4-phenylurazole",47.5,–,–
"CC(C)[C@@H]1CC[C@]2(C(=O)O)CC[C@]3(C)[C@H](CC[C@@H]4[C@@]5(C)CCC(=O)C(C)(C)[C@@H]5CC[C@]43C)[C@@H]12 [20,29-hydrobetulonic acid, 20,29-dihydrobetulonic acid]",–,73.4,–
"Diels-Alder adduct of 3β,28-diacetoxylupa-12,18-diene and urazole",87.6,–,GI50 (Table 5): 25.5 µM; activity against leishmaniasis: considerable activity
C=C(C)C1CCC2(C(=O)OC)CCC3(C)C(CCC4C5(C)CCC(=O)C(C)(C)C5CCC43C)C12 (stereo not shown) [28-methylester of betulonic acid],–,40.1,–
28-carboxymethoxy mentholester of betulin [betulin 28-carboxymethoxy mentholester],–,16.6,–
"Diels-Alder adduct of 3β,28-diacetoxylupa-12,18-diene and 4-phenylurazole",36.2,–,–
"Dials-Alder adduct of 3β,28-diacetoxylupa-12,18-diene and p-chloro-4-phenylurazole",27.3,–,–
"C=C(C)[C@@H]1CC[C@]2(C=O)CC[C@]3(C)[C@H](CC[C@@H]4[C@@]5(C)CC[C@H](O)C(C)(C)[C@@H]5CC[C@]43C)[C@@H]12 [betulinic aldehyde, reference compound]",–,–,inhibition at 50 µM [2]: 65%
"Diels-Alder adduct of 3β,28-diacetoxylupa-12,18-diene and m-nitroxy-4-phenylurazole",29.5,–,–
"Diels-Alder adduct of 3β,28-diacetoxylupa-12,18-diene and indan-5-yl urazole",22.5,–,–
"Diels-Alder adduct of 3β,28-diacetoxylupa-12,18-diene and p-acetoxy-4-phenylurazole",44.7,–,–
"C=C(C)[C@@H]1CC[C@]2(COC(=O)C3C(C=C(C)C)C3(C)C)CC[C@]3(C)[C@H](CC[C@@H]4[C@@]5(C)CC[C@H](O)C(C)(C)[C@@H]5CC[C@]43C)[C@@H]12 (stereo partly shown) [betulin 28-chrysanthemate, 28-chrysanthemate of betulin]",–,13.4,–
"C[C@@H]1[C@H](O)[C@@H](C)/C=C/C=C/C=C/C=C/C=C/C=C/C=C/[C@H](O[C@@H]2O[C@H](C)[C@@H](O)[C@H](N)[C@@H]2O)C[C@@H]2O[C@](O)(C[C@@H](O)C[C@@H](O)[C@H](O)CC[C@@H](O)C[C@@H](O)CC(=O)O[C@H]1C)C[C@H](O)[C@H]2C(=O)O [amphotericine B, Amphotericin B, reference compound]",–,–,"Inhibition of Leishmania (%) (Table 4, positive control at 1 μM): 55.4%; Inhibition of Leishmania (%) (Table 5, positive control at 1 μM): 55.4%"
"Diels-Alder adduct of 3β,28-diacetoxylupa-12,18-diene and 4-methylurazole",98.2,–,GI50 (Table 5): 8.9 µM; activity against leishmaniasis: considerable activity
"Diels-Alder adduct of lupa-12,18-diene and 4-methylurazole",50.0,–,–

# Source: patent US20100190795A1, “BETULIN DERIVED COMPOUNDS USEFUL AS ANTIPROTOZOAL AGENTS” (Valtion Teknillinen tutkimuskeskus, priority 2006, published 2010)
